# Patent US20040192774A1, “Method for improving the well-being of poultry by in-ovo injection of carnitine” (priority 2001, published 2004)
# What was measured:
# [1] = tested on: Cobb-500 strain of broiler chicken; assay: Metabolic chamber studies: subnormal oxygen supply, ascites model; format: in vivo; settings: for HCT (hematocrit, packed cell volume) / AS (ascites score): day 14, 17% oxygen
# From the text: In the context of the present invention, the ascites score is understood as an empirical score from 0 to 3 indicating no to severe myocardial degeneration, based on the histopathological changes. Pathological changes in cardiac traits such as right ventricle weight and ascites heart ratio, defined as the ratio of right ventricle weight to total ventricle weight, are also taken into account.
# A score of zero indicated minimal fat deposition and myofiber size variation, whereas a score of three indicated marked myocardial degeneration, highly abnormal cardiac traits and arteritis. A score of two was intermediate to the two extremes.
# (§1) Approximately 4000 embryonated, freshly laid eggs of Cobb-500 strain of broiler chicken (obtained from Cobb Vantress of Siloam Springs, Ark.) were pre-selected as to uniformity of weight and originated from breeder hens at approximately 35-45 weeks of the production cycle. The eggs were kept in a climatised incubation chamber at 37° C. up to day 18 post-laying. Eggs were then injected with either 100 μl sterile physiological saline or 150 μg carnitine comprised in 100 μl sterile physiological saline on day 18 of incubation. Incubation was then carried on until hatch. Carnitine was commercially available L-Carnitine (trade name: Carnifeed, Lonza Inc., 100% L-Carnitine). The eggs were injected with the automatic inovoject-system of Embrex, Inc. (maximum capacity: 50,000 eggs per hour). The system punches a tiny hole into the egg shell and then lowers a needle through the hole which delivers the therapeutic product to the embryo. Needles are automatically sanitized after each injection and provide for 100% inoculation.
# (§2) To assess the effect of the carnitine injection carried out according to Example 1, birds were selected at random from the birds originating from the Example 1 and raised up to 70 days. The birds were either placed in a commercial production environment (12 floor pens/trt; 50 birds/pen) or in metabolic chambers with normal feed but subnormal, controlled oxygen supply. The latter is an accepted testing model for trigger the ascites condition in predispositioned birds. Approximately 2400 chicks were allocated to floor pen groups as described below. Three hundred birds were selected at random and incubated in the metabolic chambers. Standard feeds were applied (similar to diets fed to commercial broiler chickens); and nutrient specifications are shown below. Feeds were mixed according to accepted mixing procedures such that treatment diets only differed in presence or absence of carnitine.
# Chicks were reared in air-tight chambers at subnormal oxygen supply simulating high altitude conditions. Feed and drinking water were provided for ad-libitum consumption. Chamber temperature was maintained at 30° C. the first 5 days of age and at 27.8° C. thereafter. Chambers were checked twice daily for bird mortality. Compressed dried air (7% relative humidity (rH), 17% oxygen) was delivered to chicks in the chamber via polyethylene tubes. It was necessary to provide low rH-air to the chick chamber in order to hold the chamber at rH below 75%. The concentration of oxygen and carbon dioxide in air exiting each bird's chamber was monitored every 15-25 minutes using Ametek oxygen (accuracy±0.2%) and carbon dioxide (accuracy±0.3%) analyzers, respectively.
# Apart from body weight and body temperature at hatching (day 0; BW0, BT0), ascites score (AS) and hematocrit (packed cell volume; HCT) of chicks were determined at day 14. Blood (2 ml) was taken from the birds via venipuncture after which they were euthanized using CO2 and necropsies were performed.
# Hearts were weighed whole and then dissected for determination of ascites heart ratio. Heart sections were taken and fixed in 10% buffered neutral formalin for histopathologic examinantion. The results of heart dissection and histopathological analysis were summarized in the ascites score.
# [2] = tested on: Cobb-500 strain of broiler chicken; assay: Floor pen studies: broiler performance after day 18 in-ovo carnitine injection (or carnitine-supplemented feed); format: in vivo; settings: for FCR 0-49 (feed conversion ratio): 0 to 49 days post-hatch; for FCR 0-70 (feed conversion ratio): 0 to 70 days post-hatch; for FCR 49-70 (feed conversion ratio): 49 to 70 days post-hatch
# Protocol: as §1, §2
# Data were analyzed using the General Linear Model procedure of SAS (SAS, 1985). When a significant F statistic was noted by ANOVA, treatment means were compared using least square analysis variance.
# Data are only given where probability levels were p≦0.10. In general, carnitine effects, though not always being statistically significant at p<0.05, were consistent across trials.
# Number of days post-hatch are indicated, e.g., BW21: Hatched chicks were grown for 21 days prior to measurement.
# Mortality (M) is given as main effect mean in %. Number of days post-hatch are indicated, e.g., M21-49: percentage of death birds in the period of 21 to 49 days post-hatch.
# Main effect means for feed conversion ratio (FCR, in grams of feed per gram of gain) is given. Number of days post-hatch are indicated, e.g., FCR 0-49: FCR in the period 0 to 49 days post-hatch that chicks were grown. For further control, the effect of in-ovo injection was compared to that of feeding the same diet, except that this diet was supplemented with carnitine at 200 ppm. Feed conversion was improved by carnitine treatment, either fed or injected. The results from both methods of carnitine administration were consistent.
# [3] = injection of carnitine versus not injected
# [4] = fed: diet supplemented with carnitine at 200 ppm
smiles,measurement,setting,value
"C[N+](C)(C)CC(O)CC(=O)[O-] (stereo not drawn) [carnitine, 3-hydroxy-4-N-trimethylaminobutyric acid]","HCT (hematocrit, packed cell volume)",[1]; fed: L-carnitine at 200 ppm (coated on silica particles) via the feed,30.25 Percent packed cells
same,AS (ascites score),"[1]; fed: L-carnitine at 200 ppm (coated on silica particles) via the feed, scale from 0-3",0.303
same,BT 0 (body temperature at hatching),"[1]; in-ovo injected day 18, day 0",101.73 ° F.
same,BW 0 (body weight at hatching),"[1]; in-ovo injected day 18, day 0",38.82 g
same,"HCT (hematocrit, packed cell volume)",[1]; in-ovo injected day 18,30.04 Percent packed cells
same,AS (ascites score),"[1]; in-ovo injected day 18, scale from 0-3 (no, slight, moderate, severe ascites lesions)",0.277
same,effect on ascites score (in words),[1]; [3],decreased
same,effect on hematocrit (in words),[1]; [3],decreased
same,increase of body weight at hatching,"[1]; single injection of carnitine into incubating eggs, versus control",0.5 g
same,"BW 21 (body weight, main effect mean)","[2]; 150 μg carnitine in-ovo injected on day 18 of incubation, 21 days post-hatch",719.9 g
same,"BW 49 (body weight, main effect mean)","[2]; 150 μg carnitine in-ovo injected on day 18 of incubation, 49 days post-hatch",2940.7 g
same,"BW 70 (body weight, main effect mean)","[2]; 150 μg carnitine in-ovo injected on day 18 of incubation, 70 days post-hatch",4168.1 g
same,effect on feed conversion (in words),"[2]; carnitine treatment, either fed or injected",improved
same,FCR 0-49 (feed conversion ratio),[2]; [4],1.817 grams of feed per gram of gain
same,FCR 0-70 (feed conversion ratio),[2]; [4],2.331 grams of feed per gram of gain
same,FCR 49-70 (feed conversion ratio),[2]; [4],3.535 grams of feed per gram of gain
same,FCR 0-49 (feed conversion ratio),[2]; in-ovo injected day 18,1.839 grams of feed per gram of gain
same,FCR 0-70 (feed conversion ratio),[2]; in-ovo injected day 18,2.369 grams of feed per gram of gain
same,FCR 49-70 (feed conversion ratio),[2]; in-ovo injected day 18,3.648 grams of feed per gram of gain
same,"WG 0-21 (weight gain, main effect mean)","[2]; in-ovo injected day 18, period 0-21 days post-hatch",681.7 g
same,"M 0-70 (mortality, main effect mean)","[2]; in-ovo injected day 18, period 0 to 70 days post-hatch",21.92%
same,"WG 21-49 (weight gain, main effect mean)","[2]; in-ovo injected day 18, period 21-49 days post-hatch",2220.8 g
same,"M 21-49 (mortality, main effect mean)","[2]; in-ovo injected day 18, period 21 to 49 days post-hatch",4.66%
same,"WG 49-70 (weight gain, main effect mean)","[2]; in-ovo injected day 18, period 49-70 days post-hatch",1227.4 g
same,"M 49-70 (mortality, main effect mean)","[2]; in-ovo injected day 18, period 49 to 70 days post-hatch",14.33%
same,weight per 100 chicks started,"[2]; in-ovo injected eggs, end of the 70 days period post-hatch",32.54 kg
same,"mortality rate, cumulative","[2]; in-ovo injection, highest age",~20%
